From US11434242B2, “Dopamine-b-hydroxylase inhibitors” (BIAL-PORTELA & Cª, S.A., priority 2017, dated 2022)

Biological target: T1, Dopamine beta hydroxylase (Homo sapiens, UniProt P09172)
T1 construct: 125 μl of plasma; tissue Instituto Português do Sangue Transplantação; host or cells: human plasma from healthy donors
T1 sequence (P09172 40-617 limits assumed): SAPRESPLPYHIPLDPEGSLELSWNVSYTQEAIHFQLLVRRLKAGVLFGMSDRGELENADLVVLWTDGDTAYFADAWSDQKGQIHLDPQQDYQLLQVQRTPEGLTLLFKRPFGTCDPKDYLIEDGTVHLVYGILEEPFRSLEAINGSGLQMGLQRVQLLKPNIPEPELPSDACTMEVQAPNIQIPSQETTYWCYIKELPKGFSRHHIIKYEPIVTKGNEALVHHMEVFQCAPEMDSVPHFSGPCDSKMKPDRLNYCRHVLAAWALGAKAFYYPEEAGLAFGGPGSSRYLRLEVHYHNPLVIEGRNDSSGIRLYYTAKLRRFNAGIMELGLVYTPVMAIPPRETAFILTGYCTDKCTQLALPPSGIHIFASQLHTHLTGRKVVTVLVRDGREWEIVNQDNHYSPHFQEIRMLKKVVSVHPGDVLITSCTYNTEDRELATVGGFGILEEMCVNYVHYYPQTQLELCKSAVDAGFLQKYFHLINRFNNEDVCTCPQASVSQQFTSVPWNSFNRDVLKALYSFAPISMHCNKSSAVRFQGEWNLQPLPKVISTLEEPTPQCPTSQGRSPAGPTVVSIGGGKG
Experiment: Dopamine beta hydroxylase activity in human plasma
Format: biochemical
Settings: for Plasma (0.01 μM), activity in % of control: inhibitor 0.01 μM; for Plasma (0.1 μM), activity in % of control: inhibitor 0.1 μM
How it was run: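 Octopamine production from tyramine over 45 min at 37° C, measured photometrically at 330 nm after SCX extraction and periodate oxidation against an octopamine standard curve, indicates plasma DβH activity. Compounds tested at final 10, 100 and 1000 nM in human plasma, pH 5.0 cofactor buffer, 10 min preincubation; results as % of control.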

Compound	Plasma (0.01 μM), activity in % of control	Plasma (0.1 μM), activity in % of control
Cn1c(CC(=O)N2CCOCC2)c2n(c1=S)C[C@@]1(c3cc(Cl)ccc3F)C[C@@H]21 [Example 422, 2-((5aS,6aR)-5a-(5-chloro-2-fluorophenyl)-2-methyl-3-thioxo-2,3,5,5a,6,6a-hexahydrocyclopropa[3,4]pyrrolo[1,2-c]imidazol-1-yl)-1-morpholinoethan-1-one]	68.1 % of control	23.2 % of control
CN(C(=O)Cc1c2n(c(=S)n1C)C[C@@]1(c3cc(Cl)ccc3F)C[C@@H]21)C1COC1 [Example 431, 2-((5aS,6aR)-5a-(5-chloro-2-fluorophenyl)-2-methyl-3-thioxo-2,3,5,5a,6,6a-hexahydrocyclopropa[3,4]pyrrolo[1,2-c]imidazol-1-yl)-N-methyl-N-(oxetan-3-yl)acetamide]	54.3 % of control	10.1 % of control
Cn1c(CC(=O)NC2COC2)c2n(c1=S)C[C@H](c1c(F)ccc(F)c1F)C2 [Example 432, (S)-2-(2-methyl-3-thioxo-6-(2,3,6-trifluorophenyl)-2,5,6,7-tetrahydro-3H-pyrrolo[1,2-c]imidazol-1-yl)-N-(oxetan-3-yl)acetamide]	79.7 % of control	43.7 % of control
Cn1c(CC(=O)NC2COC2)c2n(c1=S)C[C@@]1(c3cc(Cl)ccc3F)C[C@@H]21 [Example 433, 2-((5aS,6aR)-5a-(5-chloro-2-fluorophenyl)-2-methyl-3-thioxo-2,3,5,5a,6,6a-hexahydrocyclopropa[3,4]pyrrolo[1,2-c]imidazol-1-yl)-N-(oxetan-3-yl)acetamide]	56.9 % of control	9.2 % of control
CN(C(=O)Cc1c2n(c(=S)n1C)C[C@H](c1c(F)ccc(F)c1F)C2)C1COC1 [Example 435, (S)—N-methyl-2-(2-methyl-3-thioxo-6-(2,3,6-trifluorophenyl)-2,5,6,7-tetrahydro-3H-pyrrolo[1,2-c]imidazol-1-yl)-N-(oxetan-3-yl)acetamide]	66.5 % of control	36.6 % of control
CN(C(=O)Cc1c2n(c(=S)n1C)C[C@@]1(c3cc(Br)ccc3F)C[C@@H]21)C1COC1 [Example 438, 2-((5aS,6aR)-5a-(5-bromo-2-fluorophenyl)-2-methyl-3-thioxo-2,3,5,5a,6,6a-hexahydrocyclopropa[3,4]pyrrolo[1,2-c]imidazol-1-yl)-N-methyl-N-(oxetan-3-yl)acetamide]	64.0 % of control	7.5 % of control
CN(C(=O)Cc1c2n(c(=S)n1C)C[C@@]1(c3cc(Br)ccc3F)C[C@@H]21)C1CCOCC1 [Example 439, 2-((5aS,6aR)-5a-(5-bromo-2-fluorophenyl)-2-methyl-3-thioxo-2,3,5,5a,6,6a-hexahydrocyclopropa[3,4]pyrrolo[1,2-c]imidazol-1-yl)-N-methyl-N-(tetrahydro-2H-pyran-4-yl)acetamide]	67.2 % of control	11.8 % of control
CN(C(=O)Cc1c2n(c(=S)n1C)C[C@@]1(c3cc(Br)ccc3F)C[C@@H]21)C1CCOC1 (stereo partly drawn) [Example 440, 2-((5aS,6aR)-5a-(5-bromo-2-fluorophenyl)-2-methyl-3-thioxo-2,3,5,5a,6,6a-hexahydrocyclopropa[3,4]pyrrolo[1,2-c]imidazol-1-yl)-N-methyl-N-(tetrahydrofuran-3-yl)acetamide]	57.2 % of control	8.4 % of control
CN(C(=O)Cc1c2n(c(=S)n1C)C[C@@]1(c3cc(Cl)ccc3F)C[C@@H]21)C1CCOC1 (stereo partly drawn) [Example 441, 2-((5aS,6aR)-5a-(5-chloro-2-fluorophenyl)-2-methyl-3-thioxo-2,3,5,5a,6,6a-hexahydrocyclopropa[3,4]pyrrolo[1,2-c]imidazol-1-yl)-N-methyl-N-(tetrahydrofuran-3-yl)acetamide]	72.8 % of control	37.4 % of control

Now from value to compound:

Plasma (0.01 μM), activity in % of control	Plasma (0.1 μM), activity in % of control	Compound
18.5 % of control	1.7 % of control	Cn1c(CC(=O)NC2CCOCC2)c2n(c1=S)C[C@@]1(c3c(F)ccc(Cl)c3F)C[C@@H]21 [Example 423, 2-((5aS,6aR)-5a-(3-chloro-2,6-difluorophenyl)-2-methyl-3-thioxo-2,3,5,5a,6,6a-hexahydrocyclopropa[3,4]pyrrolo[1,2-c]imidazol-1-yl)-N-(tetrahydro-2H-pyran-4-yl)acetamide]
59.5 % of control	20.6 % of control	Cn1c(CC(=O)O)c2n(c1=S)C[C@H](c1c(F)ccc(Cl)c1F)C2 [Example 424, (S)-2-(6-(3-chloro-2,6-difluorophenyl)-2-methyl-3-thioxo-2,5,6,7-tetrahydro-3H-pyrrolo[1,2-c]imidazol-1-yl)acetic acid]
78.6 % of control	52.0 % of control	Cn1c(CC(=O)N[C@@H]2CCOC2)c2n(c1=S)C[C@H](c1cc(F)cc(F)c1)C2 [Example 425, 2-((S)-6-(3,5-difluorophenyl)-2-methyl-3-thioxo-2,5,6,7-tetrahydro-3H-pyrrolo[1,2-c]imidazol-1-yl)-N—((R)-tetrahydrofuran-3-yl)acetamide]
83.5 % of control	66.3 % of control	Cn1c(CC(=O)N[C@H]2CCOC2)c2n(c1=S)C[C@H](c1cc(F)cc(F)c1)C2 [Example 426, 2-((S)-6-(3,5-difluorophenyl)-2-methyl-3-thioxo-2,5,6,7-tetrahydro-3H-pyrrolo[1,2-c]imidazol-1-yl)-N—((S)-tetrahydrofuran-3-yl)acetamide]
78.1 % of control	34.2 % of control	Cn1c(CC(=O)NCC2CCOCC2)c2n(c1=S)C[C@H](c1c(F)ccc(F)c1F)C2 [Example 427, (S)-2-(2-methyl-3-thioxo-6-(2,3,6-trifluorophenyl)-2,5,6,7-tetrahydro-3H-pyrrolo[1,2-c]imidazol-1-yl)-N-((tetrahydro-2H-pyran-4-yl)methyl)acetamide]
68.2 % of control	32.3 % of control	Cn1c(CC(=O)NCC2CCOCC2)c2n(c1=S)C[C@H](c1cc(F)cc(F)c1)C2 [Example 428, (S)-2-(6-(3,5-difluorophenyl)-2-methyl-3-thioxo-2,5,6,7-tetrahydro-3H-pyrrolo[1,2-c]imidazol-1-yl)-N-((tetrahydro-2H-pyran-4-yl)methyl)acetamide]
37.8 % of control	5.8 % of control	CN(C(=O)Cc1c2n(c(=S)n1C)C[C@H](c1c(F)ccc(Cl)c1F)C2)C1COC1 [Example 429, (S)-2-(6-(3-chloro-2,6-difluorophenyl)-2-methyl-3-thioxo-2,5,6,7-tetrahydro-3H-pyrrolo[1,2-c]imidazol-1-yl)-N-methyl-N-(oxetan-3-yl)acetamide]
25.3 % of control	2.2 % of control	CN(Cc1cnn(C)c1)C(=O)Cc1c2n(c(=S)n1C)C[C@H](c1c(F)ccc(Cl)c1F)C2 [Example 430, (S)-2-(6-(3-chloro-2,6-difluorophenyl)-2-methyl-3-thioxo-2,5,6,7-tetrahydro-3H-pyrrolo[1,2-c]imidazol-1-yl)-N-methyl-N-((1-methyl-1H-pyrazol-4-yl)methyl)acetamide]
52.5 % of control	8.5 % of control	CN(C(=O)Cc1c2n(c(=S)n1C)C[C@@]1(c3cc(Cl)ccc3F)C[C@@H]21)C1CCOCC1 [Example 434, 2-((5aS,6aR)-5a-(5-chloro-2-fluorophenyl)-2-methyl-3-thioxo-2,3,5,5a,6,6a-hexahydrocyclopropa[3,4]pyrrolo[1,2-c]imidazol-1-yl)-N-methyl-N-(tetrahydro-2H-pyran-4-yl)acetamide]
73.6 % of control	23.9 % of control	Cn1c(CC(=O)N2CCOCC2)c2n(c1=S)C[C@@]1(c3cc(Br)ccc3F)C[C@@H]21 [Example 436, 2-((5aS,6aR)-5a-(5-bromo-2-fluorophenyl)-2-methyl-3-thioxo-2,3,5,5a,6,6a-hexahydrocyclopropa[3,4]pyrrolo[1,2-c]imidazol-1-yl)-1-morpholinoethan-1-one]
62.7 % of control	6.1 % of control	Cn1c(CC(=O)NC2COC2)c2n(c1=S)C[C@@]1(c3cc(Br)ccc3F)C[C@@H]21 [Example 437, 2-((5aS,6aR)-5a-(5-bromo-2-fluorophenyl)-2-methyl-3-thioxo-2,3,5,5a,6,6a-hexahydrocyclopropa[3,4]pyrrolo[1,2-c]imidazol-1-yl)-N-(oxetan-3-yl)acetamide]
